Assays:
[1] = biological target: human Gal-3 (hGal-3) (Homo sapiens (Human), UniProt P17931); experiment: Competitive binding assay: biotinylated hGal-3 binding to microplate-adsorbed asialofetuin (ASF); conditions: IC50 values from several measurements given as geomean
Summary of the method: (§1)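 Biotinylated hGal-3 or hGal-1 (preferably cysteine-free Cys→Ser mutant), 300–1000 ng/mL, competes with compound for ASF-coated wells for 3 h at 4 °C. Bound lectin detected with streptavidin-peroxidase (80 ng/mL, 1 h, 4 °C) and ABTS by absorbance; IC50 reported as geomean of several runs.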

[2] = biological target: human Gal-1 (hGal-1) (Homo sapiens, UniProt P09382, C131S/C17S/C43S/C61S/C89S); experiment: Competitive binding assay: biotinylated hGal-1 binding to microplate-adsorbed asialofetuin (ASF); conditions: IC50 values from several measurements given as geomean
Summary of the method: as §1

Chain of human Gal-3 (hGal-3) (P17931 whole entry): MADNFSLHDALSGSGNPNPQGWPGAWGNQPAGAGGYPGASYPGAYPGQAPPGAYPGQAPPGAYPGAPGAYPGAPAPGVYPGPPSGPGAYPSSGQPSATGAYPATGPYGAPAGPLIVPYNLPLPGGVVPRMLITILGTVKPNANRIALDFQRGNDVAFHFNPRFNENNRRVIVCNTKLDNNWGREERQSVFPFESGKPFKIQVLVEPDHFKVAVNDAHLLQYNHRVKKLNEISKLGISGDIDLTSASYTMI

IC50 [1] | IC50 [2] | Structure (SMILES)
70 nM | 4600 nM | CO[C@@H]1[C@@H](n2cc(-c3ccc(Br)c(F)c3F)nn2)[C@@H](O)[C@@H](CO)O[C@@H]1Cn1cc(C2(O)CCOCC2)nn1 [Ex 4.2.35.]
130 nM | 5910 nM | CO[C@@H]1[C@@H](n2cc(-c3ccc(Br)c(F)c3F)nn2)[C@@H](O)[C@@H](CO)O[C@@H]1Cn1cc(C2(O)CC2)nn1 [Ex 4.2.36.]
50 nM | 11300 nM | COC1=C(N2CC(c3ccc(Br)c(F)c3F)NN2)C(O)=C(CO)O[C@@H]1Cn1cc(C23CCC(NC(=O)OC(C)(C)C)(CC2)CC3)nn1 (stereo partly shown) [Ex 4.2.37.]
50 nM | 2260 nM | CCC1(c2cn(C[C@H]3O[C@H](CO)[C@H](O)[C@H](n4cc(-c5ccc(Br)c(F)c5F)nn4)[C@H]3OC)nn2)COC1 [Ex 4.2.38.]
60 nM | 2190 nM | CO[C@@H]1[C@@H](n2cc(-c3ccc(Br)c(F)c3F)nn2)[C@@H](O)[C@@H](CO)O[C@@H]1Cn1cc(C23CCC(N)(CC2)CC3)nn1 [Ex 4.2.39.]
70 nM | 3990 nM | CO[C@@H]1[C@@H](n2cc(-c3ccc(C#N)c(F)c3F)nn2)[C@@H](O)[C@@H](CO)O[C@@H]1Cc1cn(C2(C)COC2)nn1 [Ex 5.1.6.]
60 nM | 1350 nM | CO[C@@H]1[C@@H](n2cc(-c3ccc(C#N)c(F)c3F)nn2)[C@@H](O)[C@@H](CO)O[C@@H]1Cc1cn(C2(C(F)F)COC2)nn1 [Ex 5.1.53., 4-(1-((2R,3R,4S,5R,6R)-2-((1-(3-(Difluoromethyl)oxetan-3-yl)-1H-1,2,3-triazol-4-yl)methyl)-5-hydroxy-6-(hydroxymethyl)-3-methoxytetrahydro-2H-pyran-4-yl)-1H-1,2,3-triazol-4-yl)-2,3-difluorobenzonitrile]
70 nM | 1910 nM | CO[C@@H]1[C@@H](n2cc(-c3ccc(C#N)c(F)c3F)nn2)[C@@H](O)[C@@H](CO)O[C@@H]1Cc1cn(C2(C(F)(F)F)COC2)nn1 [Ex 5.1.58.]
30 nM | 1600 nM | CO[C@@H]1[C@@H](n2cc(-c3ccc(C#N)c(F)c3F)nn2)[C@@H](O)[C@@H](CO)O[C@@H]1Cc1cn([C@H]2CCOC[C@@H]2F)nn1 [Ex 5.1.66.CD]
30 nM | 1370 nM | CO[C@@H]1[C@@H](n2cc(-c3ccc(Cl)c(F)c3F)nn2)[C@@H](O)[C@@H](CO)O[C@@H]1Cc1cn(C2(C)CC(F)C2)nn1 (stereo partly drawn) [Example 2.1.47.A, (2R,3R,4S,5R,6R)-4-(4-(4-chloro-2,3-difluorophenyl)-1H-1,2,3-triazol-1-yl)-6-((1-((1S,3S)-3-fluoro-1-methylcyclobutyl)-1H-1,2,3-triazol-4-yl)methyl)-2-(hydroxymethyl)-5-methoxytetrahydro-2H-pyran-3-ol]
30 nM | 940 nM | CO[C@@H]1[C@@H](n2cc(-c3ccc(Cl)c(F)c3F)nn2)[C@@H](O)[C@@H](CO)O[C@@H]1Cc1cn([C@@H]2CCCC2(F)F)nn1 [Example 2.1.64.A, (2R,3R,4S,5R,6R)-4-(4-(4-chloro-2,3-difluorophenyl)-1H-1,2,3-triazol-1-yl)-6-((1-((R)-2,2-difluorocyclopentyl)-1H-1,2,3-triazol-4-yl)methyl)-2-(hydroxymethyl)-5-methoxytetrahydro-2H-pyran-3-ol]
30 nM | 2340 nM | CO[C@@H]1[C@@H](n2cc(-c3ccc(Cl)c(F)c3F)nn2)[C@@H](O)[C@@H](CO)O[C@@H]1Cc1cn([C@H]2CCCC2(F)F)nn1 [Example 2.1.64.B, (2R,3R,4S,5R,6R)-4-(4-(4-chloro-2,3-difluorophenyl)-1H-1,2,3-triazol-1-yl)-6-((1-((S)-2,2-difluorocyclopentyl)-1H-1,2,3-triazol-4-yl)methyl)-2-(hydroxymethyl)-5-methoxytetrahydro-2H-pyran-3-ol]
60 nM | 1800 nM | CO[C@@H]1[C@@H](n2cc(-c3ccc(Cl)c(F)c3F)nn2)[C@@H](O)[C@@H](CO)O[C@@H]1Cc1cn([C@@H]2COCC[C@H]2F)nn1 [Example 2.1.65.A, (2R,3R,4S,5R,6R)-4-(4-(4-chloro-2,3-difluorophenyl)-1H-1,2,3-triazol-1-yl)-6-((1-((3R,4R)-4-fluorotetrahydro-2H-pyran-3-yl)-1H-1,2,3-triazol-4-yl)methyl)-2-(hydroxymethyl)-5-methoxytetrahydro-2H-pyran-3-ol]
10 nM | 570 nM | CO[C@@H]1[C@@H](n2cc(-c3ccc(Cl)c(F)c3F)nn2)[C@@H](O)[C@@H](CO)O[C@@H]1Cc1cn([C@@H]2CCOC[C@@H]2F)nn1 [Example 2.1.66.A, (2R,3R,4S,5R,6R)-4-(4-(4-chloro-2,3-difluorophenyl)-1H-1,2,3-triazol-1-yl)-6-((1-((3R,4R)-3-fluorotetrahydro-2H-pyran-4-yl)-1H-1,2,3-triazol-4-yl)methyl)-2-(hydroxymethyl)-5-methoxytetrahydro-2H-pyran-3-ol]
40 nM | 2900 nM | CO[C@@H]1[C@@H](n2cc(-c3ccc(Cl)c(F)c3F)nn2)[C@@H](O)[C@@H](CO)O[C@@H]1Cc1cn([C@H]2CCOC[C@H]2F)nn1 [Example 2.1.66.B, (2R,3R,4S,5R,6R)-4-(4-(4-chloro-2,3-difluorophenyl)-1H-1,2,3-triazol-1-yl)-6-((1-((3S,4S)-3-fluorotetrahydro-2H-pyran-4-yl)-1H-1,2,3-triazol-4-yl)methyl)-2-(hydroxymethyl)-5-methoxytetrahydro-2H-pyran-3-ol]
20 nM | 950 nM | CO[C@@H]1[C@@H](n2cc(-c3ccc(Cl)c(F)c3F)nn2)[C@@H](O)[C@@H](CO)O[C@@H]1Cc1cn([C@@H]2CCOC[C@H]2F)nn1 [Example 2.1.66.C, (2R,3R,4S,5R,6R)-4-(4-(4-chloro-2,3-difluorophenyl)-1H-1,2,3-triazol-1-yl)-6-((1-((3S,4R)-3-fluorotetrahydro-2H-pyran-4-yl)-1H-1,2,3-triazol-4-yl)methyl)-2-(hydroxymethyl)-5-methoxytetrahydro-2H-pyran-3-ol]
10 nM | 780 nM | CO[C@@H]1[C@@H](n2cc(-c3ccc(Cl)c(F)c3F)nn2)[C@@H](O)[C@@H](CO)O[C@@H]1Cc1cn([C@H]2CCOC[C@@H]2F)nn1 [Example 2.1.66.D, (2R,3R,4S,5R,6R)-4-(4-(4-chloro-2,3-difluorophenyl)-1H-1,2,3-triazol-1-yl)-6-((1-((3R,4S)-3-fluorotetrahydro-2H-pyran-4-yl)-1H-1,2,3-triazol-4-yl)methyl)-2-(hydroxymethyl)-5-methoxytetrahydro-2H-pyran-3-ol]
20 nM | 1510 nM | CO[C@@H]1[C@@H](n2cc(-c3ccc(Cl)c(F)c3F)nn2)[C@@H](O)[C@@H](CO)O[C@@H]1Cc1cn([C@@H]2CCC[C@@H]2F)nn1 [Example 2.1.79.A, (2R,3R,4S,5R,6R)-4-(4-(4-chloro-2,3-difluorophenyl)-1H-1,2,3-triazol-1-yl)-6-((1-((1R,2S)-2-fluorocyclopentyl)-1H-1,2,3-triazol-4-yl)methyl)-2-(hydroxymethyl)-5-methoxytetrahydro-2H-pyran-3-ol]
30 nM | 3160 nM | CO[C@@H]1[C@@H](n2cc(-c3ccc(Cl)c(F)c3F)nn2)[C@@H](O)[C@@H](CO)O[C@@H]1Cc1cn([C@H]2CCC[C@H]2F)nn1 [Example 2.1.79.B, (2R,3R,4S,5R,6R)-4-(4-(4-chloro-2,3-difluorophenyl)-1H-1,2,3-triazol-1-yl)-6-((1-((1S,2R)-2-fluorocyclopentyl)-1H-1,2,3-triazol-4-yl)methyl)-2-(hydroxymethyl)-5-methoxytetrahydro-2H-pyran-3-ol]
40 nM | 3050 nM | CO[C@@H]1[C@@H](n2cc(-c3ccc(Cl)c(F)c3F)nn2)[C@@H](O)[C@@H](CO)O[C@@H]1Cc1cn([C@H]2CCCC[C@H]2F)nn1 [Example 2.1.81.B, (2R,3R,4S,5R,6R)-4-(4-(4-chloro-2,3-difluorophenyl)-1H-1,2,3-triazol-1-yl)-6-((1-((1S,2R)-2-fluorocyclohexyl)-1H-1,2,3-triazol-4-yl)methyl)-2-(hydroxymethyl)-5-methoxytetrahydro-2H-pyran-3-ol]
60 nM | 2920 nM | CO[C@@H]1[C@@H](n2cc(-c3ccc(Cl)c(F)c3F)nn2)[C@@H](O)[C@@H](CO)O[C@@H]1Cc1cn([C@@H]2CCCC[C@H]2F)nn1 [Example 2.1.81.C, (2R,3R,4S,5R,6R)-4-(4-(4-chloro-2,3-difluorophenyl)-1H-1,2,3-triazol-1-yl)-6-((1-((1R,2R)-2-fluorocyclohexyl)-1H-1,2,3-triazol-4-yl)methyl)-2-(hydroxymethyl)-5-methoxytetrahydro-2H-pyran-3-ol]
60 nM | 2180 nM | CO[C@@H]1[C@@H](n2cc(-c3ccc(Cl)c(F)c3F)nn2)[C@@H](O)[C@@H](CO)O[C@@H]1Cc1cn([C@H]2CCCC[C@@H]2F)nn1 [Example 2.1.81.D, (2R,3R,4S,5R,6R)-4-(4-(4-chloro-2,3-difluorophenyl)-1H-1,2,3-triazol-1-yl)-6-((1-((1S,2S)-2-fluorocyclohexyl)-1H-1,2,3-triazol-4-yl)methyl)-2-(hydroxymethyl)-5-methoxytetrahydro-2H-pyran-3-ol]
70 nM | 3190 nM | CO[C@@H]1[C@@H](n2cc(-c3ccc(Br)c(F)c3F)nn2)[C@@H](O)[C@@H](CO)O[C@@H]1Cc1cn(C2CCC2(F)F)nn1 (stereo partly drawn) [Example 4.1.63.AB, (2R,3R,4S,5R,6R)-4-(4-(4-bromo-2,3-difluorophenyl)-1H-1,2,3-triazol-1-yl)-6-((1-(2,2-difluorocyclobutyl)-1H-1,2,3-triazol-4-yl)methyl)-2-(hydroxymethyl)-5-methoxytetrahydro-2H-pyran-3-ol]
